Patent US20250144131A1, “POLYSACCHARIDE COMPOUND WITH A DEFINED MOLECULAR STRUCTURE FOR THE TREATMENT OF PULMONARY FIBROSIS” (SHENZHEN YANDAI INVESTMENT CO., LTD, priority 2023, published 2025)
Marks after values point to notes of the source that are not given here.

How the values were obtained:
bone marrow cells = system: bone marrow cells; design: species or system C57 mice; settings: mouse, in vivo, 130 mg/kg
Protocol: LLC cells in logarithmic growth phase at 1×10^7/mL were inoculated at 0.2 mL into the right axilla of 10 purchased normal male C57 mice. Tumor growth was monitored, and tumor-bearing mice were prepared. Once the tumor volume in tumor-bearing mice exceeded 200 mm^3, the tumor tissue was aseptically harvested to prepare a tissue cell suspension. This was mixed at a 1:1 (V:V) ratio with culture medium to create a tumor tissue homogenate. This homogenate was injected into the right axilla of 60 male C57 mice at 0.2 mL per mouse. When the tumor volume in these tumor-bearing mice exceeded 100 mm^3, mice with well-grown tumors without ulceration were selected and randomized into groups based on tumor volume as follows: model control group, cisplatin group (4 mg/kg), Kanglaite soft capsule group (1,404 mg/kg), cisplatin+Kanglaite soft capsule group (4+1,404 mg/kg), cisplatin+GLP-4 low-dose group (4+130 mg/kg), and cisplatin+GLP-4 high-dose group (4+1,170 mg/kg), with 8 mice per group. Additionally, 8 mice were selected as a normal control group. The cisplatin group received intraperitoneal injections of cisplatin, and the other groups were administered their respective drug solutions by gavage (20 mL/kg) or intraperitoneal injection (10 mL/kg), once daily for 27 consecutive days. After the last dose, blood was collected from the orbital plexus to test blood WBC, RBC, liver and kidney function indicators (ALT, AST, BUN, CRE), and CD3^+, CD4^+, and CD8^+ levels. Bone marrow smears were examined, and spleens, thymuses, and tumors were weighed. Histopathological examinations were conducted on the tumor, spleen, stomach, and kidneys.

[1] = Mortality and body weight of 4T1 breast tumor-bearing mice; type: in vivo, BALB/c mice
Protocol: A suspension of 4T1 breast cancer cells was injected subcutaneously into the left shoulder back of 55 healthy female BALB/c mice to create solid tumor models. When the mean tumor volume reached approximately 240 mm^3, the mice were randomized into groups based on tumor volume, and were administered the respective drugs or drug solvents via oral gavage or intraperitoneal injection over 25 consecutive days. Longest and shortest diameters of tumors were measured every three days to calculate tumor volume, and mouse weights were recorded every three days. At the end of the experiment, tumors, spleens, and thymuses were harvested and weighed to calculate tumor, spleen, and thymus indices.

`N.N.[Cl][Pt][Cl]` [Cisplatin, cisplatin] showed a Lymphatic system (bone marrow cells) of 15.75 ± 3.44, a Mononuclear cell system (bone marrow cells) of 2.88 ± 0.55 and a Myeloid/erythroid ratio (bone marrow cells) of 3.68 ± 1.68. For the same compound, the Other cells (bone marrow cells) was 2.50 ± 2.01, the Red cell system (bone marrow cells) was 22.75 ± 5.67 and the Number of deaths ([1]; 10 per group, cisplatin 4 mg/kg) was 0. The Survival time ([1]; 25 days of dosing, cisplatin 4 mg/kg) was 25 ± 0 days, the Weight ([1]; D0, cisplatin 4 mg/kg) was 18.3 ± 1.3 g and the Weight ([1]; D3, cisplatin 4 mg/kg) was 17.7 ± 1.1 g. The Weight ([1]; D6, cisplatin 4 mg/kg) was 15.5 ± 1*^ g, the Weight ([1]; D9, cisplatin 4 mg/kg) was 15 ± 1.4 g and the Weight ([1]; D12, cisplatin 4 mg/kg) was 13.8 ± 0.9 g. The Weight ([1]; D15, cisplatin 4 mg/kg) was 15 ± 1.1 g, the Weight ([1]; D19, cisplatin 4 mg/kg) was 16.8 ± 1.4 g and the Weight ([1]; D22, cisplatin 4 mg/kg) was 18 ± 1.5 g. It also gave a Weight ([1]; D25, cisplatin 4 mg/kg) of 18.1 ± 1.6 g and a Mortality rate ([1]; cisplatin 4 mg/kg) of 0.0%.
